Data on 13 compounds can be found in patent US20230285570A1, “THERAPEUTICALLY USEFUL CURE-PRO MOLECULES FOR E3 LIGASE MEDIATED DEGRADATION OF PROTEINS, AND METHODS OF MAKING AND USING THEM” (CORNELL UNIVERSITY, priority 2020, published 2023).

Common to all, as to type: cell-based
Assay [1] concerns the target T1, c-MYC (Homo sapiens, UniProt P01106). Description: CURE-PRO-mediated c-MYC degradation in HT29 cells, Western blot. More on the design: endogenous in cells; host or cells: HT29. On the procedure:
(§1) Namalwa, Ramosm HeLa, MCF7, or HT29 HCT116 cells (2.5-3×10^6) were treated for 24 hours with the indicated compounds solubilized in DMSO. The cells were washed in ice-cold PBS and were then lysed in RIPA lysis buffer (150 mM NaCl, 5 mM EDTA, 1% NP-40, 0.5% sodium deoxycholate, 0.1% SDS, 50 mM Tris, pH 8.0.) with Roche protease inhibitor complete cocktail and phosphatase inhibitors (10 mM sodium fluoride, 10 mM sodium pyrophosphate, 1 mM sodium orthovanadate and 20 mM β-glycerophosphate). The total protein concentrations were determined by Bradford Protein Assay (Pierce) and 10-20 μg of protein was loaded onto 4-15% Tris-Glycine gradient gels (Biorad). After standard gel electrophoresis, the separated proteins were transferred to PVDF membrane by wet transfer. The immunoblots were then blocked for 1 hour in 5% skim milk in TBST or 5% BSA in TBST, according to manufacturer's instructions, before an overnight incubation at 4° C. with indicated antibodies and membranes. Membranes were then incubated with the appropriate horseradish peroxidase-conjugated secondary antibodies (1:5,000 dilution) for 1 h at room temperature and the bands were visualized using the Clarity Max Western ECL Substrate (Biorad) and the ChemiDoc Imaging System (Biorad). Signal was detected with ECL Western Blotting Substrate (Pierce) and X-ray film processed with a Konica SRX-101 X-ray film processor or captured by Bio-Rad's Chemidoc Imaging system.
HT29 cells (2.5×10^6) were treated for 24 h with the compounds solubilized in DMSO. Compounds were added at 10 nM-10 μM each, as indicated in the description of the figures. Standardized protein samples were electrophoresed and imaged as described in the immunoblotting section above. c-MYC monomers (10058-F4 derivatives comprising catechol linkers), and CRBN ligands, 8048 and 8049 (pomalidomide derivatives comprising boronic acid linkers) combined in a 1:1 ratio.
HT29 cells (2.5×10^6) were treated for 24 h with the compounds solubilized in DMSO. Compounds were added at 100 nM-10 μM each.
HT29 cells (2.5×10^6) were treated for 24 h with the compounds solubilized in DMSO. Compounds were added at 100 nM-10 μM each. Standardized protein samples were electrophoresed and imaged as described in the immunoblotting section above. c-MYC monomer, MYC-E1, (a 10058-F4 derivative comprising boronic acid linkers), and CRBN ligands, 8046, 8047 and 8066 (pomalidomide derivatives comprising diol linkers) combined in a 1:1 ratio.
HT29 cells (2.5×10^6) were treated for 24 h with the compounds solubilized in DMSO. Compounds were added at 100 nM-10 μM each. Standardized protein samples were electrophoresed and imaged as described in the immunoblotting section above. c-MYC monomers, MYC-E6 (FIG. 90), MYC-E10 (FIG. 91), and MYC-E16 (FIG. 92) (10074-G5 derivatives comprising boronic acid linkers), and CRBN ligands, 8046, 8047 and 8066 (pomalidomide derivatives comprising diol linkers) combined in a 1:1 ratio.
HT29 cells (2.5×10^6) were treated for 24 h with the compounds solubilized in DMSO. Compounds were added at 10 nM-10 μM each. Standardized protein samples were electrophoresed and imaged as described in the immunoblotting section above. c-MYC monomer, MYC-N16 (FIG. 93) (10074-G5 derivatives comprising diol linkers), and VHL ligands, 8297 and 8298 (VH-298 derivatives comprising boronic acid linkers) were combined in a 1:1 ratio.
HT29 cells (2.5×10^6) were treated for 24 h with the compounds solubilized in DMSO. Compounds were added at 10 nM-10 μM each. Standardized protein samples were electrophoresed and imaged as described in the immunoblotting section above. c-MYC monomers, MYC-E7 (FIG. 96), MYC-E10 (FIG. 97), and MYC-E17 (FIG. 98), (10074-G5 derivatives comprising boronic acid linkers), and VHL ligands, 8297 and 8298 (VH-298 derivatives comprising diol linkers) were combined in a 1:1 ratio.
On the technique in general: A western blot detects proteins with antibodies after separation by electrophoresis.

For assay [2], the target named is T1, c-MYC. Description: Summary of C-MYC degradation by CURE-PRO pairs, estimated from Western Blot or WES. Also noted: endogenous in cells; host or cells: HT29. The following applies: for Degradation of C-MYC, combination with CRBN ligand 8046: Table 7, aryl-boronic acid MYC ligand + 8046; for Degradation of C-MYC, combination with CRBN ligand 8066: Table 7, aryl-boronic acid MYC ligand + 8066; for Degradation of C-MYC, combination with VHL ligand 8298: Table 12, aromatic 1,2-diol MYC ligand + 8298; for Degradation of C-MYC, combination with CRBN ligand 8048: Table 10, aromatic 1,2-diol MYC ligand + 8048; for Degradation of C-MYC, combination with CRBN ligand 8049: Table 10, aromatic 1,2-diol MYC ligand + 8049; for Degradation of C-MYC, combination with MDM2 ligand 8310: Table 11, aromatic 1,2-diol MYC ligand + 8310. The protocol:
as §1
(§2) WES Simple analysis was performed on WES system (ProteinSimple-Biotechne) according to the manufacturer's instructions. Total protein concentrations of cell lysates were determined by the Pierce BCA kit (Thermo Fisher). 3 μL of 0.3 μg/μL of the protein lysate was loaded onto a 12- to 230-kDa WES assay plate (ProteinSimple) where 300 nL sample was withdrawn through a capillary, subjected to electrophoretic separation of proteins by size, and followed by the simultaneous, HRP-based detection of proteins using the Anti-Rabbit Detection Module (Proteinsimple: #DM-001). The electropherograms were checked then the automatic peak detection was manually corrected if it was required.
(§3) A black check mark indicates efficacy of 30% to 70% or higher protein degradation.

The target of assay [3] is T2, BRD4 (Homo sapiens, UniProt O60885). Description: Summary of BRD4 degradation by CURE-PRO pairs, estimated from Western Blot or WES. More on the design: endogenous in cells. The following applies: Table 4, aromatic 1,2-diol BRD4 ligand + 8048. The protocol:
as §1, §2, §3

In assay [4] the target is T2, BRD4. Description: CURE-PRO-mediated BRD4 degradation in HeLa cells, Western blot. The conditions noted are these: 24 h, 1-10 μM each. More on the design: endogenous in cells; host or cells: HeLa. The protocol:
All cell lines were purchased from ATCC or DSMZ and grown at 37° C. with 5% CO2. Human HeLa cells were cultured in complete growth medium (Dulbecco's modified Eagle's medium (DMEM) supplemented with 10% FBS); MCF7 cells were cultured in complete growth medium (Dulbecco's modified Eagle's medium (DMEM) supplemented with 10% FBS and 0.01 mg/ml human recombinant insulin (Sigma Aldrich); Namalwa and Ramos cells were cultured in complete growth medium (RPMI 1640 medium supplemented with 10% FBS); HCT116 and HT29 cells were cultured in complete growth medium (McCoy's 5a Medium supplemented with 10% FBS). For cellular degradation of BRD4 studies cells were seeded in a 12-well plate at 70-80% confluency, allowed to attach overnight, and incubated with the indicated compounds for the indicated time. When indicated, a 15-minute pretreatment with 10 μM pomalidomide, 10 μM VHL298, 10 μM Nutlin3a, 1 μM MG-132 or 1 μM Carfilzomib was performed before the addition of CURE-PROs. For washout studies, after CURE-PRO treatment, media was aspirated and incubated with complete medium for the indicated time before lysis.
as §1
HeLa cells (2.5×10^6) were treated for 24 hours with the sample compounds solubilized in DMSO. Compounds were added at 1-10 μM each. Standardized protein samples were electrophoresed and imaged as described in the immunoblotting description above. FIGS. 6-18 depicts the CURE-PRO-mediated BRD4 degradation for BRD monomers (JQ1 derivatives comprising of catechol linkers), and CRBN ligands, 8048 and 8049 (pomalidomide derivatives comprising boronic acid linkers) combined in a 1:1 ratio.
HeLa cells (2.5×10^6) were treated for 24 hours with the compounds solubilized in DMSO. The compounds were added at 10 μM each. Standardized protein samples were electrophoresed and imaged as described in the immunoblotting section above. FIGS. 23-27 depicts the CURE-PRO-mediated BRD4 degradation for BRD monomers (JQ1 derivatives comprising of boronic acid linkers), and CRBN ligands, 8046, 8047 and 8066 (pomalidomide derivatives comprising diol linkers) combined in a 1:1 ratio.
HeLa cells (2.5×10^6) were treated for 24 hours with the compounds solubilized in DMSO. Compounds were added at 10 μM and 100 μM each. Standardized protein samples were electrophoresed and imaged as described in the immunoblotting section above.
HeLa cells (2.5×10^6) were treated for 24 hours with the compounds solubilized in DMSO. Compounds were added at 1 nM-1 μM each. […]

“Also recorded” adds a separate entry of the source.

T1 sequence (P01106 whole entry): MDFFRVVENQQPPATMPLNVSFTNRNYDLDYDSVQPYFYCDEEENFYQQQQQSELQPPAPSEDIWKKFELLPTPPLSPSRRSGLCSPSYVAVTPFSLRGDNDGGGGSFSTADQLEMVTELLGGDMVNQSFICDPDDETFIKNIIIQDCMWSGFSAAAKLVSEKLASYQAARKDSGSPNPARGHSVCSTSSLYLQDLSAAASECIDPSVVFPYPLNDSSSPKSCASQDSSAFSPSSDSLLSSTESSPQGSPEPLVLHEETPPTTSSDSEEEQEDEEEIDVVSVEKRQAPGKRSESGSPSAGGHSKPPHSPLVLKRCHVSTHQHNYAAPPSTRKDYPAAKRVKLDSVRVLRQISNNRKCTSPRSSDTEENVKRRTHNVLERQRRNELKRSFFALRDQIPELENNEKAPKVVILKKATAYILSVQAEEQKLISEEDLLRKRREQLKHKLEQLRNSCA

For `O=C(NCc1cccc(B(O)O)c1)c1ccc(Nc2ccc([N+](=O)[O-])c3nonc23)cc1` [MYC-E10], the c-MYC degradation result in assay [1] (1:1 with CRBN ligand 8046, HT29, 24 h, 100 nM-10 μM each) was “caused c-MYC degradation”; in assay [1] (1:1 with VHL ligand 8298, HT29, 24 h, 10 nM-10 μM each) it was “caused degradation of c-MYC”; in assay [1] (1:1 with VHL ligand 8305, HT29, 24 h, 10 nM-10 μM each), “caused loss of c-MYC protein”. Further, in assay [2], the “Degradation of C-MYC, combination with CRBN ligand 8046” value (“Degradation … with CRBN ligand 8046” below) is on record as “√ (A black check mark indicates efficacy of 30% to 70% or higher protein degradation)”. With `O=C(NCc1ccc(B(O)O)cc1)c1cccc(Nc2ccc([N+](=O)[O-])c3nonc23)c1` [MYC- E09], in assay [2], the “Degradation of C-MYC, combination with CRBN ligand 8066” value is “√ (A black check mark indicates efficacy of 30% to 70% or higher protein degradation)”. Turning to `O=C(NCc1ccc(O)c(O)c1)c1ccc(Nc2ccc([N+](=O)[O-])c3nonc23)cc1` [MYC-N17], the “Degradation of C-MYC, combination with VHL ligand 8298” value in assay [2] was “√ (A black check mark indicates efficacy of 30% to 70% or higher protein degradation)”. As for `O=C(NCCN1C(=O)C/C(=C\c2ccc(F)cc2)C1=O)[C@H]1C[C@@H]2C[C@H]1[C@@H](O)[C@H]2O` [MYC-N30], in assay [2], the “Degradation of C-MYC, combination with CRBN ligand 8048” value is given as “√ (A black check mark indicates efficacy of 30% to 70% or higher protein degradation)” and the “Degradation of C-MYC, combination with CRBN ligand 8049” value is “√ (A black check mark indicates efficacy of 30% to 70% or higher protein degradation)”.

As to `O=C(NCc1ccc(O)c(O)c1)c1ccccc1Nc1ccc([N+](=O)[O-])c2nonc12` [MYC-N15], in assay [2], the “Degradation of C-MYC, combination with CRBN ligand 8048” value was “√ (A black check mark indicates efficacy of 30% to 70% or higher protein degradation)” and the “Degradation of C-MYC, combination with CRBN ligand 8049” value was “√ (A black check mark indicates efficacy of 30% to 70% or higher protein degradation)”. `O=C(NCCNC(=O)c1cccc(O)c1O)c1ccccc1Nc1ccc([N+](=O)[O-])c2nonc12` [MYC- N22]: in assay [2], the “Degradation of C-MYC, combination with MDM2 ligand 8310” value (shortened to “Degradation … with MDM2 ligand 8310”) is given as “√ (A black check mark indicates efficacy of 30% to 70% or higher protein degradation)”. For the same compound, the “Degradation of C-MYC, combination with MDM2 ligand 8312” value in assay [2] (Table 11, aromatic 1,2-diol MYC ligand + 8312) is “√ (A black check mark indicates efficacy of 30% to 70% or higher protein degradation)”. For the compound `O=[N+]([O-])c1ccc(Nc2cccc(O)c2O)c2nonc12` [MYC-N11], the “Degradation of C-MYC, combination with CRBN ligand 8048” value in assay [2] is “√ (A black check mark indicates efficacy of 30% to 70% or higher protein degradation)”. As to `O=C(NCc1ccc(Cl)c(B(O)O)c1)c1ccccc1Nc1ccc([N+](=O)[O-])c2nonc12` [MYC-E18], the “Degradation … with CRBN ligand 8046” value in assay [2] is reported as “√ (A black check mark indicates efficacy of 30% to 70% or higher protein degradation)”. Consider `CCc1ccc(/C=C2\SC(=O)N(CCCc3cccc(B(O)O)c3)C2=O)cc1` [MYC- E02], for which, in assay [2], the “Degradation … with CRBN ligand 8046” value is reported as “√ (A black check mark indicates efficacy of 30% to 70% or higher protein degradation)” and the “Degradation of C-MYC, combination with CRBN ligand 8066” value was “√ (A black check mark indicates efficacy of 30% to 70% or higher protein degradation)”. Take `O=C(NCc1cccc(O)c1O)c1ccc(Nc2ccc([N+](=O)[O-])c3nonc23)cc1` [MYC- N18]: the “Degradation … with MDM2 ligand 8310” value in assay [2] is listed as “√ (A black check mark indicates efficacy of 30% to 70% or higher protein degradation)”. On to `CCNC(=O)C[C@@H]1N=C(c2ccc(Cl)cc2)c2cc(OCCOCCOCCOCCOCCOCCNC(=O)c3ccc(O)c(O)c3)ccc2-n2c(C)nnc21` [BRD-N70, N-(17-(((4S)-6-(4-chlorophenyl)-4-(2-(ethylamino)-2-oxoethyl)-1-methyl-4H-benzo[f][1,2,4]triazolo[4,3-a][1,4]diazepin-8-yl)oxy)-3,6,9,12,15-pentaoxaheptadecyl)-3,4-dihydroxybenzamide], for which, in assay [3], the “Degradation of BRD4, combination with CRBN ligand 8048” value is recorded as “√ (A black check mark indicates efficacy of 30% to 70% or higher protein degradation)”. For the same compound, the BRD4 degradation entry is “causes degradation of BRD4; also recorded: Degradation is noted” in assay [4] (co-treated 1:1 with CRBN ligand 8048, HeLa) and “no evidence of BRD4 degradation” in assay [4] (co-treated 1:1 with CRBN ligand 8049, HeLa). With `O=C(NCCNC(=O)c1ccccc1Nc1ccc([N+](=O)[O-])c2nonc12)c1ccc(O)c(O)c1` [MYC- N21], the “Degradation … with MDM2 ligand 8310” value in assay [2] was “√ (A black check mark indicates efficacy of 30% to 70% or higher protein degradation)”. Consider `CCc1ccc(/C=C2\SC(=O)N(CCNC(=O)c3cccc(O)c3O)C2=O)cc1` [MYC-N08], for which, in assay [2] (Table 12, aromatic 1,2-diol MYC ligand + 8297), the “Degradation of C-MYC, combination with VHL ligand 8297” value was “√ (A black check mark indicates efficacy of 30% to 70% or higher protein degradation)”. In addition, in assay [2], the “Degradation of C-MYC, combination with VHL ligand 8298” value is on record as “√ (A black check mark indicates efficacy of 30% to 70% or higher protein degradation)”.
